Measured values: patent US20220372013A2, “PIPERIDINE-2,6-DIONE DERIVATIVES AND CROHN'S DISEASE TREATING” (Tianjin Hemay Pharmaceutical Sci-Tech Co., Ltd, priority 2016, published 2022)
Like-named read-outs stand apart in the source and are kept apart here. Marks after values point to notes of the source that are not given here.

How the values were obtained:
[1] = test system: DNBS-Induced Inflammatory Bowel Disease Models in Rats; experiment: Biological Example 4: DNBS-induced inflammatory bowel disease models in rats; format: in vivo, Wistar rats; conditions: 30 mg/Kg i.g. qd × 7; for Adhesion Degree of Colon / Colon weight to length ratio / Ulcer area of colon / inhibition in vivo at 30 mg/kg: day 7; for Body weight: Mean ± SD; for inhibition in vivo at 30 mg/kg: Rattus norvegicus, po, 168 h
Description: 102 male Wistar rats were fasted for 72 hours. A 5% glucose injection was administered subcutaneously twice during fasting. 88 rats with normal conditions and moderate body weight were selected from the fasting rats. The animals were randomly divided into 11 groups according to the body weight (see Table 11. Grouped Table).
The animals were anesthetized with ether after 72 hours fasting. A specially made gavage device was slowly inserted into the enteric cavity at 8 cm from the anus. The model control group and each test group were administered with 0.5 mL of 50 mg/mL DNBS in 30% ethanol solution. The normal control group was administered with 0.5 mL of 30% ethanol solution. The animals were inverted in anesthesia for 15 minutes. The day when the model was prepared was day 0 of the experiment. After 4 hours of DNBS induction, the corresponding drug or the corresponding volume of 1% CMC-Na was administered once per day. On day 7 of the experiment, the animals were euthanized to score the colon adhesion degree, measure the length of colon and ulcer area, weigh colon and calculate the colon weight to length ratio.
One-way ANOVA analysis of the length of colon and colon weight per length of rats was performed by SPSS22. Statistical analyses between groups were performed. The adhesion degree was scored. Mann-Whitney U non-parametric test was performed on ulcer area. Statistical analyses between groups were performed.
Calculation Formula of Inhibitory rate of weight increase per length: (Colon weight to length ratio in model group−Colon weight to length ratio in administration group)/(Colon weight to length ratio in model group−Colon weight to length ratio in blank group)

mice = experiment: Biological Example 5: acute toxicity experiment of single oral administration in mice; format: in vivo; conditions: single oral 1000 mg/Kg, Mean ± SD
Description: The mice were fasted one day before the experiment. On the day of the experiment, 6 mice (ICR mice, body weight of 19-21 g, three females and three males) were selected in each experiment group. First of all, one female and one male were selected to orally give 1000 mg/Kg, and observed for 5-10 minutes. If there were no obvious side effects, the remaining 4 animals were orally given the same dose, and observed for 10-15 minutes. If no animal died, the animals were placed in a box to balancedly feed for 7 days. The state was observed and the body weight was recorded daily.
Observation Indexes within 0-15 Minutes after Administration
Activity: restlessness, hyperactivity
Nervous system response: tremor, spasm, convulsion, ataxia, posture abnormality, etc.
Autonomic nerve: exophthalmos, salivation, tears, urination (hematuria), diarrhea, piloerection, breathing, etc.
State of Animal: lethargy, hyperactivity, excitement, hair loss, diarrhea, abnormal behavior, death, etc.

[2] = read-out: Inhibitory rate of colon adhesion
[3] = read-out: Inhibitory rate of ulcer area of colon
[4] = read-out: Inhibitory rate of weight increase per length

Row | SMILES | Adhesion Degree of Colon [1] [point] | Colon weight to length ratio [1] [mg/cm] | Ulcer area of colon [1] | Body weight ([1]; Day 1) [g] | Body weight ([1]; Day 2) [g] | Body weight ([1]; Day 3) [g] | Body weight ([1]; Day 4) [g] | Body weight ([1]; Day 5) [g] | Body weight ([1]; Day 6) [g] | Body weight ([1]; Day 7) [g] | inhibition in vivo at 30 mg/kg [1, 2] [%] | inhibition in vivo at 30 mg/kg [1, 3] [%] | inhibition in vivo at 30 mg/kg [1, 4] [%] | Daily Body Weight (mice; Female mice, Day 1) [g] | Daily Body Weight (mice; Female mice, Day 2) [g] | Daily Body Weight (mice; Female mice, Day 3) [g] | Daily Body Weight (mice; Female mice, Day 4) [g] | Daily Body Weight (mice; Female mice, Day 5) [g] | Daily Body Weight (mice; Female mice, Day 6) [g] | Daily Body Weight (mice; Female mice, Day 7) [g] | further results
1 | COCCN1C(=O)CCC(N2C(=O)c3c(F)c(F)c(F)c(F)c3C2=O)C1=O (stereo not shown) [Example 5, 4,5,6,7-tetrafluoro-2-(1-(2-methoxyethyl)-2,6-dioxopiperidin-3-yl)isoindolin-1,3-dione] | 0.8 ± 0.5 | 99 ± 14 | 0.2 ± 0.5 cm^2 | 126.7 ± 8.9 | 125.0 ± 11.0 | 126.9 ± 14.0 | 133.9 ± 13.3 | 141.9 ± 14.9 | 146.9 ± 13.9 | 159.7 ± 14.3 | 62.2 | 91.7 | 74.1 | – | – | – | – | – | – | – | –
2 | COCCN1C(=O)CCC(F)(N2C(=O)c3cccc(N)c3C2=O)C1=O (stereo not shown) [Example 14, 4-amino-2-(1-(2-methoxyethyl)-3-fluoro-2,6-dioxopiperidin-3-yl)isoindolin-1,3-dione] | 0.8 ± 0.5 | 102 ± 18 | 0.1 ± 0.4# cm^2 | 126.2 ± 8.7 | 125.1 ± 10.5 | 129.5 ± 17.8 | 136.5 ± 19.7 | 146.4 ± 19.4 | 147.6 ± 19.9 | 165.7 ± 20.8 | 62.2 | 95.8 | 70.6 | – | – | – | – | – | – | – | –
3 | C[S+]([O-])CCN1C(=O)CCC(N2C(=O)c3cccc(N)c3C2=O)C1=O (stereo not shown) [Example 12, 4-amino-2-(1-(2-methylsulfinylethyl)-2,6-dioxopiperidin-3-yl)isoindolin-1,3-dione] | 0.8 ± 0.7 | 92 ± 16 | 0.4 ± 0.9 cm^2 | 129.1 ± 5.1 | 128.7 ± 6.6 | 133.9 ± 9.8 | 141.8 ± 12.0 | 149.2 ± 11.0 | 149.5 ± 11.2 | 167.3 ± 11.3 | 62.2 | 83.3 | 82.4 | 18.7 ± 0.7 | 21.8 ± 0.6 | 22.6 ± 0.1 | 22.6 ± 0.0 | 23.7 ± 0.6 | 25.3 ± 1.0 | 25.7 ± 1.6 | Daily Body Weight (mice; Male mice, Day 1): 18.5 ± 0.2 g; Daily Body Weight (mice; Male mice, Day 2): 24.3 ± 0.6 g; Daily Body Weight (mice; Male mice, Day 3): 24.9 ± 0.1 g; Daily Body Weight (mice; Male mice, Day 4): 24.9 ± 0.1 g; Daily Body Weight (mice; Male mice, Day 5): 26.1 ± 0.7 g; Daily Body Weight (mice; Male mice, Day 6): 27.8 ± 0.7 g; Daily Body Weight (mice; Male mice, Day 7): 28.5 ± 0.7 g
4 | CNc1cccc2c1C(=O)N(C1CCC(=O)N(CCOC)C1=O)C2=O (stereo not shown) [Example 2, 4-methylamino-2-(1-(2-methoxyethyl)-2,6-dioxopiperidin-3-yl)isoindolin-1,3-dione] | 0.8 ± 0.9 | 120 ± 25 | 1.0 ± 1.6 cm^2 | 122.1 ± 4.6 | 123.0 ± 8.4 | 127.1 ± 11.3 | 132.0 ± 12.4 | 143.9 ± 11.9 | 141.5 ± 11.5 | 162.8 ± 15.8 | 66.9 | 83.3 | 57.6 | 19.2 ± 0.5 | 22.7 ± 0.6 | 23.2 ± 0.5 | 23.2 ± 0.5 | 24.4 ± 0.2 | 24.6 ± 1.1 | 24.5 ± 1.9 | Daily Body Weight (mice; Male mice, Day 1): 18.6 ± 0.5 g; Daily Body Weight (mice; Male mice, Day 2): 24.1 ± 0.4 g; Daily Body Weight (mice; Male mice, Day 3): 24.7 ± 0.2 g; Daily Body Weight (mice; Male mice, Day 4): 24.7 ± 0.2 g; Daily Body Weight (mice; Male mice, Day 5): 26.2 ± 0.6 g; Daily Body Weight (mice; Male mice, Day 6): 28.8 ± 0.5 g; Daily Body Weight (mice; Male mice, Day 7): 29.2 ± 0.8 g
5 | CS(=O)(=O)CCN1C(=O)CCC(N2C(=O)c3cccc(N)c3C2=O)C1=O (stereo not shown) [Example 13, 4-amino-2-(1-(2-methylsulfonylethyl)-2,6-dioxopiperidin-3-yl)isoindolin-1,3-dione] | – | – | – | – | – | – | – | – | – | – | – | – | – | 18.8 ± 1.1 | 21.3 ± 0.3 | 21.8 ± 0.4 | 21.8 ± 0.4 | 23.0 ± 0.5 | 23.2 ± 0.9 | 23.6 ± 0.9 | Daily Body Weight (mice; Male mice, Day 1): 19.6 ± 0.7 g; Daily Body Weight (mice; Male mice, Day 2): 23.1 ± 0.6 g; Daily Body Weight (mice; Male mice, Day 3): 24.4 ± 0.9 g; Daily Body Weight (mice; Male mice, Day 4): 24.4 ± 0.9 g; Daily Body Weight (mice; Male mice, Day 5): 26.5 ± 0.5 g; Daily Body Weight (mice; Male mice, Day 6): 28.3 ± 1.3 g; Daily Body Weight (mice; Male mice, Day 7): 28.4 ± 0.8 g
